# Reference: patent US10261017B2, “Methods for detecting and categorizing skin sensitizers” (University of Mississippi, priority 2014, dated 2019)
# Marks after values point to notes of the source that are not given here.
# Test system: not listed separately
# Assay: NMR method: depletion of electrophile signal on reaction with DCYA
# Settings: not given
# Description: The described example can be applied to pure chemicals and mixtures. The method includes the acquisition of at least one NMR spectrum, mixing an electrophile and a nucleophile to acquire an array of control spectra and an addition of catalyst to record an array of reaction spectra. It also includes the quantification of at least one signal and the comparison of the signal with a control and the classification of the reaction based on the depletion of potential sensitizer based on the quantified residual signal.
# 2,5-Dimethylfuran was used as internal standard. When necessary, characterization of the product(s) formed during the reaction(s) was performed by homonuclear ^1H connectivities using 2D-COSY experiments. […] Two- and three bond ^1H-^13C connectivities were determined by gradient-HMBC experiments in which the evolution period for long-range ^1H-^13C coupling constants was optimized for a ^2,3JC,H of 8 Hz. Through-space ^1H connectivities were determined using a NOESY experiment with a mixing time of 0.450 s. […] Toronto, Canada].
# In a 3 mm NMR tube, 1 volume of DCYA (100) mM in CDCl3) was mixed with one volume of sensitizer (100 mM in CDCl3) to give a final concentration of 50 mM for both DCYA and the sensitizer. Control ^1H NMR spectra (reference spectra) were recorded at regular intervals of for a minimum of 5 min. […] All spectra were recorded at constant temperature. All experiments were conducted using the manufacturer's standard presaturation pulse programs and experimental conditions were chosen as explained in NMR spectroscopy section. The progress of the reaction was followed by the diminished peak areas of the resonances for the signal of interest. The spectra were phased, referenced, and integrated using NMR data elaboration software. The structural characterizations of the resulting adducts were confirmed by conducting additional 2D-NMR experiments when necessary.
# Covalent reaction of DCYA with carvone is dependent on the activation of the nucleophilic group (ex. sulfhydryl group to the reactive thio-anion) under basic conditions. This reaction is strongly dependent on the nature of the nucleophile and may be modulated by careful choice of the model nucleophile and the reaction conditions.
# The control spectra are used as reference spectra (FIG. 3A). All the spectra were subjected to automatic phase and baseline correction using a Bernstein polynomial fit (order 3). After these two steps, all the spectra were integrated over the areas of interest. […] Both vinylic and adduct peak areas were normalized relative to the internal standard signal peaks. […] The concentrations of both electrophile and adduct were then plotted as percentage against time (in minutes). (FIG. 5).
row,Structure (SMILES),NMR Classification
1,"CC/C=C/C=O [t-2-Pentenal, trans-2-Pentenal]",Strong

# Same assay, conditions: 30 min, 50 mM
row,Structure (SMILES),Conversion at t30 (depletion of electrophile signal) [%]
1,"CC/C=C/C=O [t-2-Pentenal, trans-2-Pentenal]",80

# Same assay, conditions: 90 min, 50 mM
row,Structure (SMILES),NMR Method conversion [%]
1,"CC/C=C/C=O [t-2-Pentenal, trans-2-Pentenal]",80

# Same assay, conditions: at 30 min; 1 equiv. DCYA
row,Structure (SMILES),Conversion at t30 (depletion of electrophile signal) [%]
1,C=C(C)[C@@H]1CCC2=CC(=O)C[C@@H](C)[C@]2(C)C1 [Nootkatone],0

# Same assay, conditions: at 30 min; only one equivalent of DCYA; curcumin in DMSO-d6
row,Structure (SMILES),Conversion at t30 (depletion of electrophile signal)
1,COc1cc(/C=C/C(=O)CC(=O)/C=C/c2ccc(O)c(OC)c2)ccc1O [Curcumin],17^# %

# Same assay, conditions: at 30 min; two equivalents of DCYA; curcumin in DMSO-d6
row,Structure (SMILES),Conversion at t30 (depletion of electrophile signal)
1,COc1cc(/C=C/C(=O)CC(=O)/C=C/c2ccc(O)c(OC)c2)ccc1O [Curcumin],43* %

# Same assay, conditions: at 90 min; one equivalent of DCYA; DMSO-d6
row,Structure (SMILES),NMR Method conversion [%]
1,COc1cc(/C=C/C(=O)CC(=O)/C=C/c2ccc(O)c(OC)c2)ccc1O [Curcumin],18

# Same assay, conditions: at 90 min; two equivalents of DCYA; DMSO-d6
row,Structure (SMILES),NMR Method conversion [%]
1,COc1cc(/C=C/C(=O)CC(=O)/C=C/c2ccc(O)c(OC)c2)ccc1O [Curcumin],43

# Same assay, conditions: based on depletion of electrophile signal at 30 min
row,Structure (SMILES),NMR Classification
1,C=C(C)[C@@H]1CCC2=CC(=O)C[C@@H](C)[C@]2(C)C1 [Nootkatone],Non

# Same assay, conditions: conversion of test chemical at 90 min; 1 equiv. DCYA, 0.1 equiv. DBN, CDCl3
row,Structure (SMILES),NMR Method conversion [%]
1,C=C(C)[C@@H]1CCC2=CC(=O)C[C@@H](C)[C@]2(C)C1 [Nootkatone],0

# Test system: not listed separately
# Assay: Microplate spectrophotometric method (DCYA assay), fluorescence end-point
# Settings: RI = reactivity index; 2 equiv. electrophile, pH 10 buffer
row,Structure (SMILES),DCYA 100-RI
1,O=C(O)C(O)C(O)C(=O)O (centres unmarked) [Tartaric acid],100.7
2,"CC/C=C/C=O [t-2-Pentenal, trans-2-Pentenal]",18.2
3,O=Cc1ccccc1 [Benzaldehyde],98.1
4,O=C(O)C(=O)O [Oxalic acid],89.4
5,O=C(OCc1ccccc1)c1ccccc1 [Benzyl benzoate],110.6
6,Oc1cccc(O)c1 [Resorcinol],103.5

# Same assay, conditions: false negative
row,Structure (SMILES),DCYA binary classification: FN
1,O=C(O)C(O)C(O)C(=O)O (centres unmarked) [Tartaric acid],0
2,O=C1CCO1 [Propionolactone],0
3,O=Cc1ccccc1 [Benzaldehyde],0
4,O=C(O)C(=O)O [Oxalic acid],0
5,O=C(OCc1ccccc1)c1ccccc1 [Benzyl benzoate],0

# Same assay, conditions: false positive
row,Structure (SMILES),DCYA binary classification: FP
1,O=C(O)C(O)C(O)C(=O)O (centres unmarked) [Tartaric acid],0
2,O=C1CCO1 [Propionolactone],0
3,O=Cc1ccccc1 [Benzaldehyde],0
4,O=C(O)C(=O)O [Oxalic acid],1
5,O=C(OCc1ccccc1)c1ccccc1 [Benzyl benzoate],0

# Same assay, conditions: microplate spectrophotometric method
row,Structure (SMILES),DCYA assay reactivity / classification in words
1,"CC/C=C/C=O [t-2-Pentenal, trans-2-Pentenal]",moderate reactive
2,C=C1C(=O)O[C@@H]2/C=C(/C)[C@H](O)C[C@@H](O)C(=C)C[C@H](OC(=O)/C(C)=C\C)[C@@H]12 [3 epi-hydroxyisonobilin],highly reactive
3,Oc1cccc(O)c1 [Resorcinol],non-reactive
4,"C=C1CC(OC(=O)/C(C)=C/C)C2C(=C)C(=O)OC2/C=C(\C)C(O)CC1O (centres unmarked) [hydroxyiso-nobilin, hydroxyisonobilin]",highly reactive

# Same assay, conditions: true negative
row,Structure (SMILES),DCYA binary classification: TN
1,O=C(O)C(O)C(O)C(=O)O (centres unmarked) [Tartaric acid],1
2,O=C1CCO1 [Propionolactone],0
3,O=Cc1ccccc1 [Benzaldehyde],1
4,O=C(O)C(=O)O [Oxalic acid],0
5,O=C(OCc1ccccc1)c1ccccc1 [Benzyl benzoate],1

# Same assay, conditions: true positive; positive if 100-RI <95
row,Structure (SMILES),DCYA binary classification: TP
1,O=C(O)C(O)C(O)C(=O)O (centres unmarked) [Tartaric acid],0
2,O=C1CCO1 [Propionolactone],1
3,O=Cc1ccccc1 [Benzaldehyde],0
4,O=C(O)C(=O)O [Oxalic acid],0
5,O=C(OCc1ccccc1)c1ccccc1 [Benzyl benzoate],0

# Test system: thiol peptide
# Assay: Cys-DPRA (Direct Peptide Reactivity Assay), literature data
# Settings: false negative
row,Structure (SMILES),Cys-DPRA binary classification: FN
1,O=C(O)C(O)C(O)C(=O)O (centres unmarked) [Tartaric acid],0
2,O=C1CCO1 [Propionolactone],0
3,O=Cc1ccccc1 [Benzaldehyde],0
4,O=C(O)C(=O)O [Oxalic acid],0
5,O=C(OCc1ccccc1)c1ccccc1 [Benzyl benzoate],0

# Same assay, conditions: false positive
row,Structure (SMILES),Cys-DPRA binary classification: FP
1,O=C(O)C(O)C(O)C(=O)O (centres unmarked) [Tartaric acid],0
2,O=C1CCO1 [Propionolactone],0
3,O=Cc1ccccc1 [Benzaldehyde],1
4,O=C(O)C(=O)O [Oxalic acid],0
5,O=C(OCc1ccccc1)c1ccccc1 [Benzyl benzoate],0

# Same assay, conditions: true negative
row,Structure (SMILES),Cys-DPRA binary classification: TN
1,O=C(O)C(O)C(O)C(=O)O (centres unmarked) [Tartaric acid],1
2,O=C1CCO1 [Propionolactone],0
3,O=Cc1ccccc1 [Benzaldehyde],0
4,O=C(O)C(=O)O [Oxalic acid],1
5,O=C(OCc1ccccc1)c1ccccc1 [Benzyl benzoate],1

# Same assay, conditions: true positive
row,Structure (SMILES),Cys-DPRA binary classification: TP
1,O=C(O)C(O)C(O)C(=O)O (centres unmarked) [Tartaric acid],0
2,O=Cc1ccccc1 [Benzaldehyde],0
3,O=C(O)C(=O)O [Oxalic acid],0
4,O=C(OCc1ccccc1)c1ccccc1 [Benzyl benzoate],0
